# Test results: US6593275B1, “Use of prolines for improving growth and other properties of plants and algae” (The Regents of the University of California, priority 2000, dated 2003)
# Where “and” joins values, the source holds several entries; their conditions need not be identical. Equal values may be shown once. Marks after values point to notes of the source that are not given here.
# Key:
# oat plants [1] = test: Root treatment of oats; effects of increasing leaf/root GS ratio on growth and leaf 2-hydroxy-5-oxoproline; assay type: in vivo; conditions: for Whole Plant Fresh Weight (FWT): oats, compound delivered to the roots, controls 14.95; for 2-Hydroxy-5-oxoproline in Leaf: treated oats, controls 4.9
# Experimental: (§1) Having generally described the invention, the following EXAMPLES provide additional details of the effects of the metabolite, 2-hydroxy-5-oxoproline and other prolines on plant properties. In the EXAMPLES, the concentration of 2-hydroxy-5-oxoproline in plant leaves was determined by extracting the 2-hydroxy-5-oxoproline into acidified water from a known weight of fresh leaf tissue. The sampled leaves were fully extended and photosynthetically active. The amount of 2-hydroxy-5-oxoproline was measured using a high-performance liquid chromatograph fitted with an optical detector (210 nm) and a column packed with a sulfonated polystyrene di-vinyl benzene polymer suitable for ion-exclusion chromatography of Kreb cycle intermediates. The metabolite was eluted with 0.01N H2SO4 in water. The chromatograph peak corresponding to 2-hydroxy-5-oxoproline was identified by the known column retention time of 2-hydroxy-5-oxoproline. A standard curve was prepared using chemically synthesized 2-hydroxy-5-oxoproline (structure confirmed using 13-C nuclear magnetic resonance) and varying the amount of this standard injected into the system. The area integrated under the peak was correlated with the known amount of standard injected into the chromatograph. The amount of 2-hydroxy-5-oxoproline in leaf tissue samples could then be quantitatively determined from the area under the appropriate peak.
# (§2) Also in the EXAMPLES, plants were grown at 73° F. with 16 h length days and 8 h length nights. Fluorescent lights were supplemented with incandescent bulbs to generate intensities of 1760, 980 or 360 microeinsteins per meter squared per second as indicated in the EXAMPLES. Plants were grown in a standard potting mixture of peat moss, vermiculite and perlite, and nutrients were supplied by watering daily with the commonly used Hoagland's plant nutrient solution which contains an array of known plant nutrients and is considered to be appropriate to meet the nutrient needs of plants as they normally receive them from soil.
# (§3) TABLE 5 and FIG. 3 hereof show the results of increasing the ratio of leaf/root GS activity on plant growth and on the concentration of 2-hydroxy-5-oxoproline in the leaves of oat plants treated with a compound (tabtoxinine-β-lactam) that binds to glutamine synthetase and impairs the normal destruction of this enzyme, thereby causing the leaf GS activity to increase while the root GS activity decreases. (For methodology, see, e.g., T. Knight, D. Bush, and P. Langston-Unkefer, Plant Physiol. 88, 333 (1988)). The compound (Tabtoxinine-β-lactam) was delivered to the roots. […] The level of 2-hydroxy-5-oxoproline was also observed to increase in the leaves of these plants as a consequence of the increased leaf/root GS activity ratio.
# glutamine synthetase = test: Glutamine synthetase activity in leaf and root of treated oats (transferase assay); assay type: in vivo; conditions: for GS Activity, Leaf: leaf of treated oats, controls 10.5; for GS Activity, Root: root of treated oats, controls 7.8; for Leaf/Root GS Activity Ratio: treated oats, controls 1.35
# Experimental: Glutamine synthetase activity was measured using the transferase assay as described in “Glutamine Synthetase (E. coli)” by B. Shapiro and E. Stadtman, Meth. Enzym. 17A, 910 (1970). The GS activity is expressed in micromoles per gram of fresh weight of tissue per minute.
# as §3
# oat plants [2] = test: Foliar treatment of oats with 5-oxoproline; assay type: in vivo; conditions: oats harvested 17 days after single foliar treatment, 40.5 mg per milliliter, 1% dimethylsulfoxide, pH 6.3
# Experimental: A solution containing 40.5 mg per milliliter of 2-pyrrolidone-5-carboxylic acid and 1% dimethylsulfoxide in water at a pH of 6.3 was applied, but other solutions of this compound were also found to be effective. These plants were grown under lights of 980 microeinsteins per meter squared per second and the treatment was applied to their foliar parts.
# [3] = tested on: oat plants (commercial cultivar Lodi); test: Daily root treatment of oats with 2-hydroxy-5-oxoproline; assay type: in vivo
# Experimental: as §1
# Also in the EXAMPLES, plants were grown at 73° F. with 16 h length days and 8 h length nights. […]
# The treatment was commenced when the seedlings were 7 days old and continued for 56 days; the 2-hydroxy-5-oxoproline was supplied daily to their roots as 50 ml of between 0.5 to 50 μM solutions of 2-hydroxy-5-oxoproline in Hoagland's plant nutrient solution having a pH of 6.3. […] When the amount of dry weight was expressed as a function of fresh weight, the percent dry weight of the treated plants ranged from 8.1 to 8.4% when compared with 7.6% for untreated control plants. […]
# lettuce = test: Weekly foliar treatment of lettuce with 2-hydroxy-5-oxoproline; assay type: in vivo
# Experimental: as §1, §2
# The fresh weight, dry weight, percent dry weight, 2-hydroxy-5-oxoproline concentration in the leaves, and the CO2 fixation rates are all increased in the treated plants. The greater dry weight percent increases the value of these plants and that of algae as fuel because the increase provides a greater amount of combustible material per gram of fresh weight (that is, a greater amount of carbon was fixed by the plant), and because an increase in dry weight percent reduces the water content in the fuel which is an energy cost when the fuel is combusted. It also increases the value of these plants as sources of biomass suitable for conversion to other products such as chemicals, liquid fuels, or hydrogen, to name a few examples. Treatments were applied weekly to the foliar parts of the plants using an air brush until approximately 20% drip. The aqueous treatment solution contained 2-hydroxy-5-oxoproline (10 mg/liter) in 0.07% sodium laurel sulfate, and 1.2% glycerol at a pH of 6.3. The plants were harvested at 63 days of age after 7 treatments; the harvest was made 7 days after the last treatment. These plants were provided Hoagland's plant nutrient solution to their roots and grown under light intensity of […] microeinsteins.
# At harvest (63 days of age) none of the 12 control plants had emerged flowering structures, whereas 6 of the 12 treated plants had well-developed flowering structures.
# [4] = tested on: alfalfa commercial cultivar Saranac; test: Daily root treatment of alfalfa: growth, nodulation and flowering; assay type: in vivo
# Experimental: as §2
# Growth and nodulation were improved by the treatment. The alfalfa commercial cultivar Saranac, was grown as described hereinabove using 1760 microeinsteins per meter squared per second as the light intensity, and watered daily with quarter-strength Hoagland's plant nutrient solution that had been modified to replace the nitrogen (nitrate) with chloride in the solution. Nodulating alfalfa seedlings were treated beginning at about 4 days of age, with the same quantity of 2-hydroxy-5-oxoproline as described in EXAMPLE 1 for plants receiving the 2-hydroxy-5-oxoproline through their roots.
# The time to flowering or emergence of seed structures of treated daily and untreated plants was tracked in alfalfa and oats.
# [5] = tested on: Switchgrass (commercial cultivar Alamo); test: Daily root treatment of switchgrass; assay type: in vivo
# Experimental: as §2
# Average fresh weight of the foliar part of the plants was 115% of that for the control plants.
# [6] = tested on: wildtype oats (commercial cultivar Lodi); test: Daily root treatment of oats; selection of responders by CO2 fixation rate and tillers; assay type: in vivo
# Experimental: Oats were treated with 2-hydroxy-5-oxoproline through their roots as described in EXAMPLE 1. Individual plants that responded to the increased level of 2-hydroxy-5-oxoproline were identified by measuring the rate of CO2 fixation using a CO2 fixation meter at the maximum light intensity for photosynthetic carbon dioxide fixation of 2000 microeinsteins per meter squared per second. The rates were measured in the leaves of treated plants on two successive days and the plants were allowed to mature and produce seed.
# Chlorella sorokinian = test: Growth rate of algae with 2-hydroxy-5-oxoproline in growth medium; assay type: cell-based; conditions: treated algae, CO2 sole carbon source; untreated approximately 60 h
# Experimental: The growth rate of algae, Chlorella sorokinian (obtained from the American Type Culture Collection), was increased when 2-hydroxy-5-oxoproline was added to the growth medium. The mass accumulation growth curve for this single-cell photosynthetic organism is described as a sigmoidal function. […] This reflects substantially accelerated growth for the treated algae cultures when compared with untreated cultures. The growth medium for algae growth is described in Biotechnology & Bioengineering Vol. IV by Daboll et al., pages 281-297 (1962). Carbon dioxide was provided as the sole carbon source and was allowed to sparge into the cultures of both treated and untreated cultures. The light source supplied approximately 980 ft candles. Media pH was initially adjusted to 8.0 using either NaOH or HCl, and subsequently maintained at pH 7.0 by controlling the introduction of CO2.
# thrip = test: Thrip infestation of alfalfa plants with elevated 2-hydroxy-5-oxoproline; assay type: in vivo; conditions: of 80 plants, one week after initial exposure; controls 15 of 80
# Description: Thrip infestation of plants having increased 2-hydroxy-5-oxoproline concentration was compared with that of control plants having a normal level of 2-hydroxy-5-oxoproline in their leaves. Control (80 plants) and plants with elevated levels of 2-hydroxy-5-oxoproline (80 plants) were subjected to thrip infestation; these two sets of plants were randomly intermingled in the greenhouse to assure equal exposure to the pest. Of the set of control plants, 15 were infested with thrip while only 11 of the other set of plants were infested with thrip one week after initial exposure to the pests. The light intensity for growth was approximately 1760 microeinsteins per meter squared per second.
# Cantaloupe-Imperial = test: Single foliar treatment of cantaloupe seedlings; assay type: in vivo; conditions: 16 days old, harvested 9 day after a single treatment, untreated 0.85
# Experimental: (§4) TABLE 7 and TABLE 8 show the results when commercial vegetables such as cantaloupe, and tomatoes, and a crop such as cotton were tested for the effects of the metabolite on their growth rates. These plants received one foliar application of 2-hydroxy-5-oxoproline as young seedlings. These plants grew more rapidly as determined by either fresh weight or leaf length. The cantaloupe and cotton seedlings were harvested and their fresh weight was determined.
# (§5) *Plants were 16 days old and were harvested 9 day after the treated plants had received a single treatment.
# Cotton-Pima = test: Single foliar treatment of cotton seedlings; assay type: in vivo; conditions: 16 days old, harvested 9 day after a single treatment, untreated 1.27
# Experimental: as §4, §5
# Tomato-Halley 3155 = test: Multiple foliar treatment of tomato; assay type: in vivo; conditions: 24 days old, 5 weekly treatments, untreated 11.97
# Experimental: as §4
# ** Plants were 24 days old and treated plants had received 5 weekly treatments.
# [7] = lettuce, harvest at 63 days, control 100%
# [8] = alfalfa, daily root treatment (soil), controls 100
# [9] = individual treated oat plants, non-responders
smiles,measurement,setting,value
"N[C@@H](CC[C@]1(O)CNC1=O)C(=O)O [Tabtoxinine-β-lactam, tabtoxinine-β-lactam, reference compound]",Whole Plant Fresh Weight (FWT),oat plants [1],24.6 g
same,2-Hydroxy-5-oxoproline in Leaf,oat plants [1],16.6 micromoles/g FWT
same,"GS Activity, Leaf",glutamine synthetase,Leaf: 25.9 micromoles/g FWT/min
same,"GS Activity, Root",glutamine synthetase,Root: 3.9 micromoles/g FWT/min
same,Leaf/Root GS Activity Ratio,glutamine synthetase,6.6
"O=C1CCC(C(=O)O)N1 (centres unmarked) [5-oxoproline, 2-pyrrolidone-5-carboxylic acid]","fresh foliar weight, percent of untreated control plants",oat plants [2],126%
O=C1CC[C@@](O)(C(=O)O)N1 [2-hydroxy-5-oxoproline],seed structures displayed earlier than untreated control plants,[3]; oats treated daily,3 to 5 days
same,2-Hydroxy-5-oxoproline Concentration in Leaf,"[3]; oats, daily root treatment, control 4.9",7.0 micromoles/gFWT
same,Whole Plant Fresh Weight (FWT),"[3]; oats, roots treated daily for 56 days with 50 ml of 0.5 to 50 μM solution, control 14.95",18.06 g
same,CO2 Fixation Rate,"lettuce; 34 day-old lettuce plants, control 6.6",9.0 micromoles CO2 fixed/m^2/sec
same,CO2 Fixation Rate,"lettuce; 57 day-old lettuce plants, control 6.9",9.6 micromoles CO2 fixed/m^2/sec
same,Whole Plant Fresh Weight (FWT),"lettuce; lettuce, 7 weekly foliar treatments 10 mg/liter, harvest at 63 days, control 55.3",65.2 g
same,Whole Plant Dry Weight (DW),"lettuce; lettuce, harvest at 63 days, control 4.00",6.35 g
same,"Whole Plant Dry Weight, percent of control",lettuce; [7],159%
same,"Whole Plant Fresh Weight, percent of control",lettuce; [7],118%
same,2-Hydroxy-5-oxoproline Concentration in Leaf,"lettuce; lettuce, weekly foliar treatment, control 6.25",13.37 micromoles/gFWT
same,"2-Hydroxy-5-oxoproline Concentration in Leaf, percent of control","lettuce; lettuce, control 100%",212%
same,number of plants with well-developed flowering structures,"lettuce; of the 12 treated lettuce plants at harvest (63 days of age), none of 12 controls",6
same,flowered sooner than untreated plants,[4]; alfalfa treated daily,2 to 5 days
same,Nodule number/plant (%),[4]; [8],214%
same,Nodule weight/plant (%),[4]; [8],165%
same,Whole plant Fresh weight (%),[4]; [8],145%
same,"Average fresh weight of the foliar part, percent of control plants","[5]; switchgrass, daily root treatment",115%
same,"dry weight per unit of fresh weight, foliar parts","[5]; treated switchgrass, untreated 14.9%",16.5%
same,"dry weight per unit of fresh weight, roots","[5]; treated switchgrass, untreated 16.7%",12.05%
same,emergence of 3rd and 4th leaves (FIG. 4),"[5]; treated versus control switchgrass, as a function of time",consistently emerged leaves sooner than did the control plants
same,Number of Tillers in Mature Plant,"[6]; average of non-responders, average of untreated plants 13.7",14.0
same,CO2 fixation Rate as Differential CO2 Concentration,"[6]; average of non-responders, average of untreated plants 18.2",18.2 ppm
same,Number of Tillers in Mature Plant,"[6]; average of responders, average of untreated plants 13.7",17.0
same,CO2 fixation Rate as Differential CO2 Concentration,"[6]; average of responders, average of untreated plants 18.2",25.3 ppm
same,CO2 fixation Rate as Differential CO2 Concentration,[6]; [9],19.9 ppm and 19.6 ppm and 17.2 ppm and 16.1 ppm
same,Number of Tillers in Mature Plant,[6]; [9],14 (2×) and 13 and 15
same,Number of Tillers in Mature Plant,"[6]; individual treated oat plants, responders",21 (2×) and 19 and 12 and 15 and 17 (3×) and 13 and 18
same,CO2 fixation Rate as Differential CO2 Concentration,"[6]; individual treated oat plants, responders, light 2000 microeinsteins",25.2 ppm and 24.5 ppm and 24.2 ppm (2×) and 23.6 ppm and 23.2 ppm and 28.9 ppm and 28.0 ppm and 25.9 ppm and 25.3 ppm
same,Whole Plant Fresh Weight (FWT),oat plants [1],18.07 g
same,2-Hydroxy-5-oxoproline in Leaf,oat plants [1],7.04 micromoles/g FWT
same,"GS Activity, Leaf",glutamine synthetase,Leaf: 16.9 micromoles/g FWT/min
same,"GS Activity, Root",glutamine synthetase,Root: 6.4 micromoles/g FWT/min
same,Leaf/Root GS Activity Ratio,glutamine synthetase,2.64
same,time to reach the mid-log phase of growth,Chlorella sorokinian,approximately 40 h
same,number of plants infested with thrip,thrip,11
same,"Foliar Fresh Weight, Treated plants",Cantaloupe-Imperial,1.55* g
same,"Foliar Fresh Weight, Treated plants",Cotton-Pima,1.85* g
same,"Foliar Fresh Weight, Treated plants",Tomato-Halley 3155,19.08** g
